Consider four molecules from US12582717B2, “Protein based excipient for active pharmaceutical ingredients” (ROUSSELOT B.V., priority 2016, dated 2026).

≈ marks a conversion by molar mass, not a printed value. Where “and” joins values, the source holds several entries; their conditions need not be identical. Identical values can stand only once. Like-named read-outs stand apart in the source and are kept apart here.

Data set [1] addresses T1, BSA (Bos taurus, UniProt P02769).
T1 construct: from tissue; host or cells: bovine origin (tissue or fluid not specified)
The data set is described as follows: Tryptophan quenching binding of Flubendazole to BSA. Set-up: species or system bovine. The note with it: read-out: dissociation constant Kd. An excerpt: For the following experiment the binding strength of a protein based excipient to a model API was verified. For the purposes of this experiment, BSA was the protein source, Flubendazole was used as the model API, formic acid served as the solvent and spray drying was chosen as the drying method.

A short description of data set [2]: Equilibrium solubility of Flubendazole in FaSSGF (RP-HPLC). The format is physicochemical. The note with it: FaSSGF (fasted state simulated gastric fluid), pH 1.6, fassgf or other biorelevant, thermodynamic from solid; FaSSGF (1.6 pH), excess Flubendazole rotated up to 72 hours; read-out: equilibrium solubility in FaSSGF medium. The protocol: The dissolution profile and supersaturation state (i.e., the available concentration) was tested using a dissolution media which simulates the juice present in the human stomach before (i.e. fasted state) eating food; namely FaSSGF (1.6 pH) available from Bio-relevant®. A suitable method for determining the concentration is Reversed phase High-performance liquid chromatography (RP-HPLC), which separates molecules based on hydrophobicity causing different retention times as they flow out the column. The further working principles of RP-HPLC are known in the art. The RP-HPLC set-up used an Eclipse Zorbax Agilent 5 μm (4.6×150 mm) column with a flow Rate of 1 ml/min. The injection volume was 20 μl with the mobile phase containing ACN/TFA 0.1% (55:45) and an elution time of Flubendazole about ±1.9 min. The wavelength for measurements was set at 280 nm.
Prior to the experiments, the solubility of Flubendazole in FaSSGF was determined to serve as the baseline reference value. The reference solution was prepared by bringing an excess of Flubendazole in 8 ml FaSSGF solution. This solution was rotated during 72 hours and a 1 ml sample was taken every 24 hours. These reference samples were filtered through a Polytetrafluoroethylene (PTFE) 0.45 μm filter to determine the concentration of Flubendazole through the tested RP-HPLC method. […]

The nature of data set [3]: Solubility statements in the description. The format is physicochemical.
Data set [4] can be described thus: Dissolution of solvent-cast protein films (Example 1). The class given is physicochemical. The settings on record: film cast from 5% solution in formic acid; 37° C., 0.1N HCl pH 1.5 for 90 minutes, then pH 6.8 up to 330 minutes. The protocol:
In the following experiment 5% solutions of various proteins were dissolved in formic acid and solvent-casted into protein films. The proteins were selected from gelatin, BSA (albumin), pea, soy, whey and zein (corn). The protein films were then dissolved at 37° C. in 0.1N HCl with a pH of 1.5 for 90 minutes, after which the pH was adjusted to 6.8 over a time period up to 330 minutes.
The dissolution of the protein films was evaluated using spectrophotometry (absorbance at 280 nm), and plotted as a function of time.

T1 sequence (P02769 25-607): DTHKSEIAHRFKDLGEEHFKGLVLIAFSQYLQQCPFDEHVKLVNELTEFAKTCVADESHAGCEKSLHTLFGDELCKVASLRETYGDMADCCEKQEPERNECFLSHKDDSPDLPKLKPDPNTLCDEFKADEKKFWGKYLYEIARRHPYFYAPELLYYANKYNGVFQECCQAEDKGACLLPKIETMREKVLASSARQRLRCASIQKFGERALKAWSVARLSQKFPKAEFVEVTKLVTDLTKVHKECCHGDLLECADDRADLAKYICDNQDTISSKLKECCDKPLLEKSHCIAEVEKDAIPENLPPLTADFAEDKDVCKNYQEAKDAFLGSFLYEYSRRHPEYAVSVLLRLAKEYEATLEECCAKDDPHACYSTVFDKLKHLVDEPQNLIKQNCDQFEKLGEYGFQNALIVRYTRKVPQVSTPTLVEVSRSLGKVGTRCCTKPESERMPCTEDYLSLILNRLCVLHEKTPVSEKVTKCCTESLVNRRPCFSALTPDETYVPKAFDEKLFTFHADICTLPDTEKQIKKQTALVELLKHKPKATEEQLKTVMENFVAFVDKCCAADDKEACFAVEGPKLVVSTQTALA

Consider `COC(=O)Nc1nc2cc(C(=O)c3ccc(F)cc3)ccc2[nH]1` [Flubendazole], for which the Kd was 234 µM and ~234 µM in data set [1] (pH 1.0); 133 µM and ~133 µM in data set [1] (pH 4.0); 116 µM and ~116 µM in data set [1] (pH 7.0). The solubility thermodynamic at 72 h in data set [2] was 11.2 µg/mL (≈ 35.7 µM).
Take `CCCS(=O)(=O)Nc1ccc(F)c(C(=O)c2c[nH]c3ncc(-c4ccc(Cl)cc4)cc23)c1F` [Vemurafenib]: in data set [3], the solubility in methanol result was “does not dissolve”.
Turning to Zein, the “dissolution level of protein film” value in data set [4] is given as “about 10%”.
Turning to gelatin, in data set [4], the “dissolution level of protein film” value is reported as “(near) complete dissolution”.
